Broadly, the IC50 is the concentration that gives 50% inhibition. Lower therefore signals inhibition by little substance.

The structures appear in SMILES notation.

The target of the experiment is 26S proteasome non-ATPase regulatory subunit 14 (Homo sapiens, UniProt O00487). The experiment in a line: inhibition of proteasome subunit RPN11 – biochemical, fluorescence polarization, uHTS hits, confirmation (AID 602368). (Polarisation of emitted light reports the rotation of a fluorescent probe.)
Sequence of 26S proteasome non-ATPase regulatory subunit 14 (O00487 whole entry): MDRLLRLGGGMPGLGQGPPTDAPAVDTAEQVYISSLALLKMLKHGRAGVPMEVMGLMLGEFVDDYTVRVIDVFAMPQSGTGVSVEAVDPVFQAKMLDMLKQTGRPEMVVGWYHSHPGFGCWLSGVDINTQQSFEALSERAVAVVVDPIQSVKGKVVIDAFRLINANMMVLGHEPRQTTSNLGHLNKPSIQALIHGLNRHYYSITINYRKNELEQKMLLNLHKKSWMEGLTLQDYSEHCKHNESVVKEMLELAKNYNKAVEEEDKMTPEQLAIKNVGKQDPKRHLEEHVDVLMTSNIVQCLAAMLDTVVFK
Consider `O=C1N=C(Nc2ccc(Cl)cc2Cl)SC1=Cc1c[nH]c2ccccc12`, for which the IC50 is 36.5 µM.

Consider `COC1=CC([N+](=O)[O-])=CC(/C=N/NC(=O)c2cc(-c3ccccc3)nc3ccccc23)C1=O` (stereo not given), for which the IC50 amounted to 22.3 µM.

With `COC1=CC(=Cc2c(C)[nH]n(-c3cccc(Br)c3)c2=O)C=C(OC)C1=O`, the IC50 is 23.1 µM.

The compound `CN(CCO)c1ccc(CN=Nc2ccc([N+](=O)[O-])cc2S(=O)(=O)Nc2ccccc2C(=O)O)cc1` registered an IC50 of 37 µM.

Turning to `O=c1c(Cl)c(N=NCc2ccc(Br)cc2)cnn1-c1ccccc1`, the IC50 turned out to be 21.2 µM.

Compound `CCOC(=O)C1C(=O)C(=Cc2ccc(-c3ccccc3C(=O)O)o2)SC1=Nc1ccc(OC)cc1` (stereo not given) returned an IC50 of 17.8 µM. This IC50 and that of the compound before are within 1.5-fold of each other.

With `CC[n+]1c(CC=Nc2ccccc2)oc2ccc(OC)cc21`, the half-inhibitory concentration (IC50) worked out at 23.2 µM.

Turning to `O=C1C=CC([N+](=O)[O-])=CC1C=NN=C1NS(=O)(=O)c2ccccc21` (stereo not given), the IC50 amounted to 34.9 µM.

`CCN(CC)CCOC(=O)c1ccc(N=CC(C#N)c2nc(-c3ccc4c(c3)OCO4)cs2)cc1` (stereo not given) [2-(diethylamino)ethyl 4-[[(Z)-2-[4-(1,3-benzodioxol-5-yl)-1,3-thiazol-2-yl]-2-cyano-ethenyl]amino]benzoate] showed an IC50 of 31.4 µM.

The compound `Oc1csc(=S)n1N=Cc1ccc(Cl)s1` [3-[(5-chlorothiophen-2-yl)methylideneamino]-2-sulfanylidene-1,3-thiazolidin-4-one] came in with an IC50 of 59.4 µM. This IC50 is about 1.9-fold higher than that of the compound before.

`CC(=O)C1C(=O)OC(=CC=Cc2ccccc2)C1=O` (stereo not given) [3-acetyl-5-cinnamylidene-4-hydroxy-2-furanone] registered an IC50 of 35.2 µM.

On to `C=c1[nH]n(-c2nnc(C)c(=O)[nH]2)c(=O)c1=Cc1ccc(N(CC)CC)cc1` [3-{4-[1-(4-Diethylamino-phenyl)-meth-(Z)-ylidene]-3-methyl-5-oxo-4,5-dihydro-pyrazol-1-yl}-6-methyl-4H -[1,2,4]triazin-5-one], for which the IC50 came out at 49.4 µM.

For the compound `NS(=O)(=O)c1ccc(N=CCC(=O)c2ccc3ccccc3c2)cc1` [4-(3-Naphthalen-2-yl-3-oxo-propenylamino)-benzenesulfonamide], the IC50 amounted to 28.6 µM.

Regarding `CSc1nsc(CC=Nc2ccc(C(=O)O)cc2)c1C#N` [4-({2-[4-cyano-3-(methylsulfanyl)-5-isothiazolyl]vinyl}amino)benzenecarboxylic acid], the IC50 turned out to be 24.8 µM. The IC50 values of the last two compounds are within 1.5-fold of each other.

Consider `CC1(C)CC(=O)C(=CNCC2CCN(C(=O)Cc3ccccc3)CC2)C(=O)C1` [5,5-dimethyl-2-[[[1-(2-phenylacetyl)piperidin-4-yl]methylamino]methylidene]cyclohexane-1,3-dione], for which the IC50 was > 100 µM.

Compound `CC(c1sc(S)nc1O)c1sc(S)nc1O` [5-[1-(4-oxidanylidene-2-sulfanylidene-1,3-thiazolidin-5-yl)ethyl]-2-sulfanylidene-1,3-thiazolidin-4-one] came in with an IC50 of 45.4 µM.

Turning to `CC1=NC(=O)NC(c2ccc(N3CCOCC3)cc2)C1C(=O)c1ccccc1` (stereo not given) [5-benzoyl-6-methyl-4-[4-(4-morpholinyl)phenyl]-3,4-dihydro-1H-pyrimidin-2-one], inhibition was half-maximal at 17.1 µM (IC50). Compared with the last compound, the IC50 is about 2.7-fold lower.

On to `COC1=CC([N+](=O)[O-])=CC(/C=N/NC(=O)c2cncc(Br)c2)C1=O` (stereo not given) [5-bromo-N'-[(E)-(5-methoxy-3-nitro-6-oxo-1-cyclohexa-2,4-dienylidene)methyl]-3-pyridinecarbohydrazide], for which the IC50 worked out at 49.5 µM. Compared with the last compound, the IC50 is about 2.9-fold higher.

The compound `Cc1[nH]n(-c2ccccc2)c(=O)c1C=C1NC(=S)NC1=O` [5-methyl-4-[(Z)-(5-oxo-2-sulfanylideneimidazolidin-4-ylidene)methyl]-2-phenyl-4H-pyrazol-3-one] yielded an IC50 of 32.4 µM.

`O=C1c2ccccc2SC1/C=N/c1cc([N+](=O)[O-])ccc1O` (stereo not given) [(2Z)-2-[[(5-nitro-2-oxidanyl-phenyl)amino]methylidene]-1-benzothiophen-3-one] gave an IC50 of 3.28 µM.

Regarding `Cc1[nH]c2ccccc2c1/C=C1\N=C(c2ccccc2)OC1=O` [(4Z)-4-[(2-methyl-1H-indol-3-yl)methylidene]-2-phenyl-5-oxazolone], it took 4.18 µM to reach half-maximal inhibition (IC50).

With `C=CCN1C(=O)C(/C=N/c2cccc([N+](=O)[O-])c2)C(=O)N(CCCC)C1=O` (stereo not given) [MLS000543529], 34 µM corresponded to half-maximal inhibition (IC50). Against the preceding compound, the IC50 is about 8.1-fold higher.

The compound `O=[N+]([O-])c1ccc(N=NCc2c[nH]c3ccccc23)cc1` [MLS000573812] showed an IC50 of 1.77 µM.

The compound `O=[N+]([O-])c1ccc(N=NCc2ccc[nH]2)cc1` [MLS000595102] returned an IC50 of 8.96 µM.

In turn, `COc1cc2c3c(c1)C(C)=CC(C)(C)N3C(=O)C2=O` [MLS000688351] showed an IC50 of 8.23 µM.

As to `C=C(C=C(C)c1sc(S)nc1O)c1sc(S)nc1O` [MLS000723803], the IC50 turned out to be 43.6 µM.

Compound `C=c1[nH]c2ccc(C)cc2c1=Cc1c(N)n2oc(C)cc2nc1=O` [MLS000730959] returned an IC50 of 33.3 µM.

`O=C(N/N=C/C1C=C([N+](=O)[O-])C=CC1=O)c1cc(-c2ccccc2)nc2ccccc12` (stereo not given) [N'-[(E)-(3-nitro-6-oxo-1-cyclohexa-2,4-dienylidene)methyl]-2-phenyl-4-quinolinecarbohydrazide]: the IC50 is 14.8 µM.

In turn, `COc1cc(C=c2[nH]c3n(c2=O)CCCCC=3)ccc1O` [SMR000149996] showed an IC50 of 14.8 µM.

`O=[N+]([O-])c1ccc(N=NCc2cccn2-c2ccccc2)nc1` [SMR000161089] registered an IC50 of 23.5 µM.

`COc1cc(C=CC(=O)C2C(=O)NC(=O)N(CCc3ccccc3)C2=O)ccc1O` (stereo not given) [SMR000221203] came in with an IC50 of 29.2 µM.

`Cc1cc(=O)[nH]c(N=NCc2c(O)n(-c3ccccc3)c(=O)c3ccccc23)n1` [SMR000221270] displayed an IC50 of 18.4 µM. Against the preceding compound, the IC50 is about 1.6-fold lower.

For the compound `O=C(N/N=C/C1C=C(Cl)C=C([N+](=O)[O-])C1=O)c1ccccc1NS(=O)(=O)c1cccs1` (stereo not given) [SMR000364876], the IC50 is 10.4 µM.

Compound `CCN(CC)CCOC(=O)c1ccc(N=CC(C#N)c2nc(-c3ccc(OC)c(OC)c3)cs2)cc1` (stereo not given) [SMR000434079] came in with a 50% inhibitory concentration (IC50) of 23.2 µM.

For `CCCCCCCCCCCC1N=C(N)N=C(CCCO)C1C(=O)OC` (stereo not given) [SMR001565729], inhibition was half-maximal at 19.9 µM (IC50). The IC50 values of the last two compounds are within 1.5-fold of each other.

For the origin of these results see BindingDB's records for doi:10.7270/Q2PC30Z9 (Burnham Center For Chemical Genomics, 2012).
